{"source": "paper PMC7469376", "about": "(ACS Omega, 2020)", "key": {"SphK1 [1]": {"biological_target": "T1, SphK1 (Homo sapiens, UniProt Q9NYA1)", "T1 sequence (Q9NYA1 whole entry)": "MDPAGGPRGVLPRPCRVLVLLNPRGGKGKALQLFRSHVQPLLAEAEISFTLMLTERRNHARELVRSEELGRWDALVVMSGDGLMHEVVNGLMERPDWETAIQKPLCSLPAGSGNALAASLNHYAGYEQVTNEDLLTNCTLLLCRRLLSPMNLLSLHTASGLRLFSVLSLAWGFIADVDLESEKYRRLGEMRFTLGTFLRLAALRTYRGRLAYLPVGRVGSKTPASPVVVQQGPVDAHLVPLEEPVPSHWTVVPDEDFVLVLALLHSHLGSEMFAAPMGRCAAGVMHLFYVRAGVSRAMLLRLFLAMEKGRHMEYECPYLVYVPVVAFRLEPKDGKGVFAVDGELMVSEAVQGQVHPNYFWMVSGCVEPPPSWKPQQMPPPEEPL", "experiment": "Isothermal titration calorimetry of harmaline with SphK1", "type": "binding"}, "SphK1 [2]": {"biological_target": "T1, SphK1", "experiment": "Malachite green-based ATPase enzyme inhibition assay", "type": "biochemical"}, "H1299 cells": {"system": "H1299 cells", "experiment": "MTT cell viability assay, H1299", "type": "cell-based", "conditions": "Homo sapiens, NCI-H1299, 48 h, read-out: IC50, cell viability (MTT)"}, "A549 cells": {"system": "A549 cells", "experiment": "MTT cell viability assay, A549", "type": "cell-based", "conditions": "Homo sapiens, A549, 48 h, read-out: IC50, cell viability (MTT)"}, "[3]": {"system": "caspase-3 activity in A549 cells", "experiment": "Caspase-3 colorimetric assay, A549", "type": "cell-based, human", "conditions": "50 and 100 μM, 24 h, compared to untreated cells"}, "[4]": {"system": "caspase-3 activity in H1299 cells", "experiment": "Caspase-3 colorimetric assay, H1299", "type": "cell-based, human", "conditions": "50 and 100 μM, 24 h, compared to untreated cells"}, "HEK293": {"system": "HEK293", "conditions": "read-out: IC50 against HEK293; after 72 h of treatment; ref Storch et al. 94; cited from earlier work"}}, "data": [{"smiles": "COc1ccc2c3c([nH]c2c1)C(C)=NCC3", "note": "[harmaline]", "values": [{"measurement": "association constant Ka1", "setting": "SphK1 [1]; ITC, site 1", "result": "Ka1 = 1.89 × 10^4 ± 1.3 × 10^3 M^–1"}, {"measurement": "enthalpy change ΔH1", "setting": "SphK1 [1]; ITC, site 1", "result": "ΔH1 = −3205 ± 197 cal/mol"}, {"measurement": "ΔG1 (free energy change)", "setting": "SphK1 [1]; ITC, site 1", "result": "ΔG1 = −5.83 kcal/mol"}, {"measurement": "ΔS1", "setting": "SphK1 [1]; ITC, site 1", "result": "ΔS1 = 8.82 cal/mol/deg"}, {"measurement": "association constant Ka2", "setting": "SphK1 [1]; ITC, site 2", "result": "Ka2 = 1.49 × 10^5 ± 8.6 × 10^3 M^–1"}, {"measurement": "enthalpy change ΔH2", "setting": "SphK1 [1]; ITC, site 2", "result": "ΔH2 = 1895 ± 257 cal/mol"}, {"measurement": "ΔG2 (free energy change)", "setting": "SphK1 [1]; ITC, site 2", "result": "ΔG2 = −7.04 kcal/mol"}, {"measurement": "ΔS2", "setting": "SphK1 [1]; ITC, site 2", "result": "ΔS2 = 30.0 cal/mol/deg"}, {"measurement": "association constant Ka3", "setting": "SphK1 [1]; ITC, site 3", "result": "Ka3 = 3.50 × 10^4 ± 2.0 × 10^3 M^–1"}, {"measurement": "enthalpy change ΔH3", "setting": "SphK1 [1]; ITC, site 3", "result": "ΔH3 = 272.3 ± 190 cal/mol"}, {"measurement": "ΔG3 (free energy change)", "setting": "SphK1 [1]; ITC, site 3", "result": "ΔG3 = −5.99 kcal/mol"}, {"measurement": "ΔS3", "setting": "SphK1 [1]; ITC, site 3", "result": "ΔS3 = 21.7 cal/mol/deg"}, {"measurement": "association constant Ka4", "setting": "SphK1 [1]; ITC, site 4", "result": "Ka4 = 4.58 × 10^3 ± 2.9 × 10^2 M^–1"}, {"measurement": "enthalpy change ΔH4", "setting": "SphK1 [1]; ITC, site 4", "result": "ΔH4 = −9574 ± 467 cal/mol"}, {"measurement": "ΔG4 (free energy change)", "setting": "SphK1 [1]; ITC, site 4", "result": "ΔG4 = −4.98 kcal/mol"}, {"measurement": "ΔS4", "setting": "SphK1 [1]; ITC, site 4", "result": "ΔS4 = −15.4 cal/mol/deg"}, {"measurement": "Kd", "setting": "SphK1 [1]; dissociation constant KD1, ITC, site 1", "result": 52.9, "unit": "µM"}, {"measurement": "Kd", "setting": "SphK1 [1]; dissociation constant KD2, ITC, site 2", "result": 6.7, "unit": "µM"}, {"measurement": "Kd", "setting": "SphK1 [1]; dissociation constant KD3, ITC, site 3", "result": 28.6, "unit": "µM"}, {"measurement": "Kd", "setting": "SphK1 [1]; dissociation constant KD4, ITC, site 4", "result": 218, "unit": "µM"}, {"measurement": "IC50", "setting": "SphK1 [2]; IC50, SphK1 ATPase activity, harmaline 0 to 30 μM, three independent experiments", "result": 6.13, "unit": "µM"}, {"measurement": "hill slope of SphK1 inhibition curve", "setting": "SphK1 [2]; three-parameter Hill fit", "result": 0.57}, {"measurement": "IC50", "setting": "H1299 cells", "result": "48.2 ± 1.76", "unit": "µM"}, {"measurement": "IC50", "setting": "A549 cells", "result": "67.9 ± 2.91", "unit": "µM"}, {"measurement": "caspase-3 activity (free pNA liberated per hour)", "setting": "[3]", "result": "gradual increase in the caspase-3 activity"}, {"measurement": "caspase-3 activity (free pNA liberated per hour)", "setting": "[4]", "result": "gradual increase in the caspase-3 activity"}, {"measurement": "IC50", "setting": "HEK293", "result": "> 200", "unit": "µM"}]}]}
